Reference: patent US9321781B2, “Topoisomerase inhibitors” (Rutgers, The State University of New Jersey, priority 2009, dated 2016)
Read-outs that look alike come from different tables or passages of the source.

Columns and labels:
[1] = system: human lymphoblast RPMI 8402; assay: MTT cytotoxicity assay (Test B), RPMI 8402; format: cell-based; settings: RPMI 8402 cells, continuous exposure four days, read-out: Cytotoxicity (IC50 values (μM) RPMI8402)
Description: (§1) Test B. Cytotoxic assays (cancer cell lines and efflux transporter cell lines)
(§2) The cytotoxicity was determined using the MTT-microtiter plate tetrazolinium cytotoxicity assay (MTA). The human lymphoblast RPMI 8402 and its camptothecin-resistant variant cell line, CPT-K5 was provided by Dr. Toshiwo Andoh (Aichi Cancer Center Research Institute, Nagoya, Japan). The P388 mouse leukemia cell line and its CPT-resistant TOP1-deficient variant P388/CPT45 were obtained from Michael R. Mattern and Randal K. Johnson (GlaxoSmithKline, King of Prussia, Pa.). The KB3-1 cell line and its multidrug-resistant variant KBV-1 were obtained from K.V. Chin (The Cancer Institute of New Jersey, New Brunswick, N.J.). The KBH5.0 cell line as noted previously was derived from KB3-1 by stepwise selection against Hoechst 33342. The cytotoxicity assay was performed using 96-well microtiter plates. Cells were grown in suspension at 37° C. in 5% CO2 and maintained by regular passage in RPMI medium supplemented with 10% heat inactivated fetal bovine serum, L-glutamine (2 mM), penicillin (100 U/mL), and Streptomycin (0.1 mg/mL). For determination of IC50, cells were exposed continuously for four days to varying concentrations of drug, and MTT assays were performed at the end of the fourth day. […] All assays were performed at least twice in six replicate wells.

[2] = system: CPT-K5 (camptothecin-resistant variant cell line of RPMI 8402); assay: MTT cytotoxicity assay (Test B), CPT-K5; format: cell-based, human; settings: CPT-K5 cells, continuous exposure four days
Description: as §1, §2

[3] = system: P388 mouse leukemia cell line; assay: MTT cytotoxicity assay (Test B), P388; format: cell-based; settings: 96 h, P388 cells, continuous exposure four days
Description: as §1, §2

[4] = system: P388/CPT45 (CPT-resistant TOP1-deficient variant of P388); assay: MTT cytotoxicity assay (Test B), P388/CPT45; format: cell-based; settings: Mus musculus, P388CPT45, 96 h, P388/CPT45 cells, continuous exposure four days
Description: as §1, §2

[5] = MTT cytotoxicity assay, KB3-1 parent cell line; format: cell-based; settings: human, KB3-1 cells (parent cell line), KB3-1 parent cells, continuous exposure four days
Description: as §1, §2
(§3) The cytotoxicity of the representative compounds of the invention were also tested against cell line KB3-1 (parent cell line), KBV-1 (a variant that overexpresses efflux transporter MDR1) and KBH5.0 (a variant that overexpresses BCRP). Differences in the relative cytotoxicity between the parent and variant cell lines may be indicative of a compound that is a substrate for an efflux transporter. […] Accordingly, compounds of the invention may be useful to treat tumors that are resistant to other anticancer agents, including anticancer agents that are susceptible to efflux by BCRP (e.g. anthracyclines, mitoxantrone, topotecan, irinotecan, bisanthrone, doxorubicin, daunorubicin, and epirubin.

MDR1 = assay: MTT cytotoxicity assay, KBV-1 efflux transporter cell line; format: cell-based; settings: human, KBV-1 cells (KB3-1 variant that overexpresses MDR1), KBV-1 cells (MDR1 overexpressing), continuous exposure four days
Description: as §1, §2, §3

BCRP = assay: MTT cytotoxicity assay, KBH5.0 efflux transporter cell line; format: cell-based; settings: human, KBH5.0 cells (KB3-1 variant that overexpresses BCRP); KBH5.0 cells (BCRP overexpressing), continuous exposure four days, MTT
Description: as §1, §2, §3

[6] = system: KBH5.0 (a variant that overexpresses BCRP); assay: as above; format: cell-based; settings: inferred from relative cytotoxicity KB3-1 vs KBH5.0
Description: as §1, §2, §3

SMILES	IC50 ([1]; Homo sapiens, RPMI 8402, 96 h) [µM]	IC50 [1] [µM]	IC50 [2] [µM]	IC50 ([2]; Homo sapiens, CPT-K5, 96 h) [µM]	IC50 [3] [µM]	IC50 [4] [µM]	IC50 at 4 days [5] [µM]	IC50 at 4 days (MDR1) [µM]	IC50 at 4 days (BCRP) [µM]	substrate for efflux transporter BCRP [6]	IC50 ([1]; Homo sapiens, 96 h) [µM]	IC50 ([2]; Homo sapiens, 96 h) [µM]
COc1cc2c(cc1OC(=O)c1ccccc1)c(=O)n(CCN(C)C)c1c3cc4c(cc3ncc21)OCO4 [Example 1, 5-(2-(dimethylamino)ethyl)-9-methoxy-2,3-methylenedioxy-6-oxo-5,6-dihydrodibenzo[c,h][1,6]naphthyridin-8-yl benzoate]	0.006	0.009	0.55	0.5	0.002	0.12	0.002	0.06	0.025	–	–	–
COc1cc2c(cc1OC(=O)c1ccccc1C)c(=O)n(CCN(C)C)c1c3cc4c(cc3ncc21)OCO4 [Example 2, 5-(2-(dimethylamino)ethyl)-9-methoxy-2,3-methylenedioxy-6-oxo-5,6-dihydrodibenzo[c,h][1,6]naphthyridin-8-yl 2-methylbenzoate]	0.07	0.05	–	2	0.03	0.4	0.04	0.2	0.04	not a substrate for BCRP	–	–
COc1cc2c(cc1OC(C)=O)c(=O)n(CCN(C)C)c1c3cc4c(cc3ncc21)OCO4 [Example 3, 5-(2-(dimethylamino)ethyl)-9-methoxy-2,3-methylenedioxy-6-oxo-5,6-dihydrodibenzo[c,h][1,6]naphthyridin-8-yl acetate]	0.009	–	–	0.7	0.004	0.3	0.007	0.06	0.025	–	–	–
COc1cc2c(cc1OC(=O)C(C)(C)C)c(=O)n(CCN(C)C)c1c3cc4c(cc3ncc21)OCO4 [Example 4, 5-(2-(dimethylamino)ethyl)-9-methoxy-2,3-methylenedioxy-6-oxo-5,6-dihydrodibenzo[c,h][1,6]naphthyridin-8-yl pivalate]	0.0007	–	–	0.3	0.003	0.25	0.002	0.024	0.017	–	–	–
COc1cc2c(cc1OC(=O)CCC1CCCC1)c(=O)n(CCN(C)C)c1c3cc4c(cc3ncc21)OCO4 [Example 5, 5-(2-(dimethylamino)ethyl)-9-methoxy-2,3-methylenedioxy-6-oxo-5,6-dihydrodibenzo[c,h][1,6]naphthyridin-8-yl (3-cyclopentyl)propionate]	0.003	–	–	0.33	0.002	0.07	0.003	0.058	0.013	–	–	–
CCOC(=O)Oc1cc2c(=O)n(CCN(C)C)c3c4cc5c(cc4ncc3c2cc1OC)OCO5 [Example 6, 5-(2-(dimethylamino)ethyl)-9-methoxy-2,3-methylenedioxy-6-oxo-5,6-dihydrodibenzo[c,h][1,6]naphthyridin-8-yl ethyl carbonate]	0.0006	–	–	0.25	0.0002	0.06	0.001	0.003	0.008	–	–	–
COc1cc2c(cc1OC(=O)OC(C)(C)C)c(=O)n(CCN(C)C)c1c3cc4c(cc3ncc21)OCO4 [Example 7, tert-butyl 5-(2-(dimethylamino)ethyl)-9-methoxy-2,3-methylenedioxy-6-oxo-5,6-dihydrodibenzo[c,h][1,6]naphthyridin-8-yl carbonate]	0.0005	–	–	0.31	0.001	0.08	0.002	0.004	0.009	–	–	–
CCNC(=O)Oc1cc2c(=O)n(CCN(C)C)c3c4cc5c(cc4ncc3c2cc1OC)OCO5 [Example 8, 5-(2-(dimethylamino)ethyl)-9-methoxy-2,3-methylenedioxy-6-oxo-5,6-dihydrodibenzo[c,h][1,6]naphthyridin-8-yl ethylcarbamate]	–	–	–	–	0.003	0.09	0.004	0.04	0.015	–	0.003	0.5
COc1cc2c(cc1OC(=O)N(C)C)c(=O)n(CCN(C)C)c1c3cc4c(cc3ncc21)OCO4 [Example 9, 5-(2-(dimethylamino)ethyl)-9-methoxy-2,3-methylenedioxy-6-oxo-5,6-dihydrodibenzo[c,h][1,6]naphthyridin-8-yl dimethylcarbamate]	–	–	–	–	1.3	3.8	0.4	3	2	–	1.7	> 10
COc1cc2c(cc1OC(=O)N1CCC(N3CCCCC3)CC1)c(=O)n(CCN(C)C)c1c3cc4c(cc3ncc21)OCO4 [Example 10, 5-(2-(dimethylamino)ethyl)-9-methoxy-2,3-methylenedioxy-6-oxo-5,6-dihydrodibenzo[c,h][1,6]naphthyridin-8-yl 1,4′-bipiperidine-1′-carboxylate]	–	–	–	–	0.5	0.5	0.75	1.6	1.1	–	0.55	1.5
